From patent publication EP0062321A2, “New cephem compounds, processes for their preparation, pharmaceutical compositions containing them and their starting compounds” (FUJISAWA PHARMACEUTICAL CO., LTD., priority 1981, dated 1982)
Values after ≈ are worked out from the molar mass of the structure shown.

Key:
Pr.vulgaris IAM-1025 = experiment: Minimal inhibitory concentration (MIC) by agar dilution on heart infusion agar; assay type: cell-based; conditions: Proteus vulgaris, IAM1025, HI-agar, one loopful of overnight culture in Trypticase-soy broth (10 viable cells per ml), 37°C for 20 hours
Protocol: (§1) Now in order to show the utility of the object compounds (I), test data on anti-microbial activity of representative compounds of the present invention are shown below.
(§2) One loopful of an overnight culture of each test strain in Trypticase-soy broth (10 viable cells per ml,) was streaked on heart infusion agar (HI-agar) containing graded concentrations of antibiotics, and the minimal inhibitory concentration (MIC) was expressed in terms of µg/ml after incubation at 37°C for 20 hours.

Pr.mirabilis 140 = experiment: as above; assay type: cell-based; conditions: Proteus mirabilis, HI-agar, one loopful of overnight culture in Trypticase-soy broth (10 viable cells per ml), 37°C for 20 hours
Protocol: as §1, §2

MIC (Pr.vulgaris IAM-1025) [µg/mL] | MIC (Pr.mirabilis 140) [µg/mL] | Structure (SMILES)
0.78 (≈ 1.58 µM) | 0.39 (≈ 0.792 µM) | CCO/N=C(\C(=O)NC1C(=O)N2C(C(=O)[O-])=C(C[n+]3cccn3C)CSC12)c1nsc(N)n1 (stereo not drawn) [(1)]
0.39 (≈ 0.795 µM) | 0.39 (≈ 0.795 µM) | CCO/N=C(\C(=O)NC1C(=O)N2C(C(=O)[O-])=C(C[n+]3ccccn3)CSC12)c1nsc(N)n1 (stereo not drawn) [(2)]
6.25 (≈ 13.1 µM) | 0.39 (≈ 0.818 µM) | CO/N=C(\C(=O)NC1C(=O)N2C(C(=O)[O-])=C(C[n+]3ccccn3)CSC12)c1nsc(N)n1 (stereo not drawn) [(3)]
